Patent US9765037B2, “Compositions and methods for treating toxoplasmosis, cryptosporidiosis, and other apicomplexan protozoan related diseases” (University of Washington Through its Center for …, priority 2010, dated 2017)
pEC50, pIC50: −log10 of the molar value. Converted amounts (≈) assume the structure as drawn. Like-named read-outs stand apart in the source and are kept apart here.

Experiments:
[1] = test system: human lymphocyte (CRL8155); test: Growth inhibition of human cell line CRL8155
[2] = test system: colorectal carcinoma (HC 2998); test: Growth inhibition of human cell line HC 2998
[3] = test system: human promyelocytic leukemia (HL-60); test: Growth inhibition of human cell line HL-60
glioma derived (SF539) = test: Growth inhibition of human cell line SF539
[4] = Solubility in buffers of various pH; format: physicochemical; details: pH 6.5, aqueous buffer, read-out: Experimental Solubility pH 6.5
CpCDPK1 = CpCDPK1 (Cryptosporidium parvum (strain Iowa II), UniProt A3FQ16); test: biochemical; format: biochemical; details: for IC50: Table 8, read-out: IC50 (μM) CpCDPK1
Sequence of CpCDPK1 (A3FQ16 1-538): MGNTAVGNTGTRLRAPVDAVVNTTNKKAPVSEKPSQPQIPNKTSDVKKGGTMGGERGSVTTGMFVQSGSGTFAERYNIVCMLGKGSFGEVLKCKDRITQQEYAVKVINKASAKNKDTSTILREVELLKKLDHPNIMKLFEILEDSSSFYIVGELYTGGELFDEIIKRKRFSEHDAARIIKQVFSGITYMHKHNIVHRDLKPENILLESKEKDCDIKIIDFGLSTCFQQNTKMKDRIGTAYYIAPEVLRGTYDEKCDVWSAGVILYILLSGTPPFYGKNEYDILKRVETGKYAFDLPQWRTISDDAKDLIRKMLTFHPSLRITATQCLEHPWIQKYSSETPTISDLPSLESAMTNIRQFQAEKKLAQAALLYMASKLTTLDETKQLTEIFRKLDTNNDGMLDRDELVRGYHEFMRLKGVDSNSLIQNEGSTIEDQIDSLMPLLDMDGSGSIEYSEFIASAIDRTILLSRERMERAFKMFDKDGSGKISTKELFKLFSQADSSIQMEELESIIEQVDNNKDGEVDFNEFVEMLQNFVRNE

TgCDPK1 = TgCDPK1 (Toxoplasma gondii, UniProt Q9BJF5); format: biochemical; details: read-out: IC50 (μM) TgCDPK1
Sequence of TgCDPK1 (Q9BJF5 1-507): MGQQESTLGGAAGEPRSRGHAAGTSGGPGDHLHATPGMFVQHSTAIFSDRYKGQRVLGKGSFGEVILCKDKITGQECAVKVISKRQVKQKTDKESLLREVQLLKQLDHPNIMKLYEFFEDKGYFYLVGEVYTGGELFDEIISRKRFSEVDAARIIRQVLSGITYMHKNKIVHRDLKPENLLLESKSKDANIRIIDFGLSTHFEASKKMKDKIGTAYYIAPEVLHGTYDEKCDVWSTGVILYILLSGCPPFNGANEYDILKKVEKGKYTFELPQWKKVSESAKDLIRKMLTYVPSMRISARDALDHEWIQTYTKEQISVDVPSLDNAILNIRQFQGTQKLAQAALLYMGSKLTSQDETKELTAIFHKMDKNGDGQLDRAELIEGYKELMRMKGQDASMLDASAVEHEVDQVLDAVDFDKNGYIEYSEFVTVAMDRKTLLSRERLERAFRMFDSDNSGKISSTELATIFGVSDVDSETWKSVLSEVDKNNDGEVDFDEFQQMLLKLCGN

[5] = Blood levels after oral gavage dosing of mice (LC-MS); details: mouse, in vivo, po
PfCDPK1 = PfCDPK1 (Plasmodium falciparum (isolate 3D7), UniProt P62344); test: biochemical
PfCDPK4 = PfCDPK4 (Plasmodium falciparum (isolate 3D7), UniProt Q8IBS5); test: biochemical

Row | SMILES | solubility ([4]; buffer) [µM] | pEC50 (PfCDPK1) | pEC50 (PfCDPK4) | further results
1 | CCN1CCC(Cn2nc(Cc3cccc4ccccc34)c3c(N)ncnc32)CC1 [Compound 5n, 1-((1-ethylpiperidin-4-yl)methyl)-3-(naphthalen-1-ylmethyl)-1H-pyrazolo[3,4-d]pyrimidin-4-amine] |  |  |  | Cell Toxicity CRL8155, % at 10 μM [1]: <30% at 10 μM; Cell Toxicity HCC2998, % at 10 μM ([2]; 10 μM): <30% at 10 μM; Cell Toxicity HL60, % at 10 μM [3]: <30% at 10 μM; Cell Toxicity SF539, % at 10 μM (glioma derived (SF539); 10 μM): <30% at 10 μM
2 | CS(=O)(=O)N1CCC(n2nc(Cc3cccc4ccccc34)c3c(N)ncnc32)CC1 [Compound 5p, 1-(1-(methylsulfonyl)piperidin-4-yl)-3-(naphthalen-1-ylmethyl)-1H-pyrazolo[3,4-d]pyrimidin-4-amine] |  |  |  | Cell Toxicity CRL8155, % at 25 μM [1]: <30% at 25 μM; Cell Toxicity HCC2998, % at 25 μM [2]: <30% at 25 μM; Cell Toxicity HL60, % at 25 μM [3]: <30% at 25 μM; Cell Toxicity SF539, % at 25 μM (glioma derived (SF539)): <30% at 25 μM
3 | CC(C)n1nc(-c2ccc(Cl)cc2)c2c(N)ncnc21 [Compound 7a, 3-(4-chlorophenyl)-1-isopropyl-1H-pyrazolo[3,4-d]pyrimidin-4-amine] | 45 (≈ 12.9 µg/mL) |  |  | IC50 (CpCDPK1): 0.216 µM; pIC50 (CpCDPK1; read-out: CpCDPK1 IC50): 6.66; IC50 (TgCDPK1): 0.018 µM
4 | CC(C)n1nc(-c2ccc(Cl)c(Cl)c2)c2c(N)ncnc21 [Compound 7c, 3-(3,4-dichlorophenyl)-1-isopropyl-1H-pyrazolo[3,4-d]pyrimidin-4-amine] |  |  |  | Cell Toxicity CRL8155, % at 25 μM [1]: 54% at 25 μM; Cell Toxicity HCC2998, % at 25 μM [2]: <30% at 25 μM; Cell Toxicity HL60, % at 25 μM [3]: 51% at 25 μM; Cell Toxicity SF539, % at 25 μM (glioma derived (SF539)): 31% at 25 μM
5 | CCOc1ccc2cc(-c3nc(C(C)C)n4ccnc(N)c34)ccc2c1 [Compound 10, 1-(6-ethoxynaphthalen-2-yl)-3-isopropylimidazo[1,5-a]pyrazin-8-amine] | 29 (≈ 10 µg/mL) | 6.42 | 6.48 | AUC [5]: 112 µM·h; Cmax [5]: 26000 nM; Tmax [5]: 2.5 h; IC50 (CpCDPK1): 0.0336 µM; IC50 (TgCDPK1): 0.078 µM
6 | Nc1ncnc2c1c(-c1ccc(Cl)cc1)nn2CC1CCNCC1 [Compound 45, 3-(4-chlorophenyl)-1-(piperidin-4-ylmethyl)-1H-pyrazolo[3,4-d]pyrimidin-4-amine] | 62 (≈ 21.3 µg/mL) | 7.25 | 6.46 | 
7 | CC(C)(C)n1nc(-c2ccc(NC(=O)C3CCCCC3)cc2)c2c(N)ncnc21 [Compound 64, N-(4-(4-amino-1-tert-butyl-1H-pyrazolo[3,4-d]pyrimidin-3-yl)phenyl)cyclohexanecarboxamide] |  | 6.89 | 5.97 | IC50 (CpCDPK1): 0.928 µM; IC50 (TgCDPK1): 0.143 µM
8 | CC(C)(C)n1nc(-c2ccc(NC(=O)c3ccccc3)cc2)c2c(N)ncnc21 [Compound 65, N-(4-(4-amino-1-tert-butyl-1H-pyrazolo[3,4-d]pyrimidin-3-yl)phenyl)benzamide] |  | 6.99 | 5.54 | IC50 (CpCDPK1): 1.16 µM; IC50 (TgCDPK1): 0.171 µM
9 | CC(C)(C)n1nc(-c2ccc(NC(=O)Cc3ccccc3)cc2)c2c(N)ncnc21 [Compound 66, N-(4-(4-amino-1-tert-butyl-1H-pyrazolo[3,4-d]pyrimidin-3-yl)phenyl)-2-phenylacetamide] |  | 6.54 | 5.66 | IC50 (CpCDPK1): 2.02 µM; IC50 (TgCDPK1): 0.178 µM
10 | CCC(=O)Nc1ccc(-c2nn(C(C)(C)C)c3ncnc(N)c23)cc1 [Compound 67, N-(4-(4-amino-1-tert-butyl-1H-pyrazolo[3,4-d]pyrimidin-3-yl)phenyl)propionamide] |  | 6.49 | 5.70 | IC50 (CpCDPK1): 0.822 µM; IC50 (TgCDPK1): 0.196 µM
11 | Cn1ccc2cc(-c3nc(C(C)(C)C)n4ccnc(N)c34)ccc21 [Compound 70, 3-tert-butyl-1-(1-methyl-1H-indol-5-yl)imidazo[1,5-a]pyrazin-8-amine] | 5 (≈ 1.6 µg/mL) | 7.27 | 7.08 | Cell Toxicity CRL8155, % at 10 μM [1]: <30% at 10 μM; Cell Toxicity HL60, % at 10 μM [3]: 40% at 10 μM
12 | COc1ccc2cc(-c3nc(C(C)(C)C)n4ccnc(N)c34)ccc2c1 [Compound 71, 3-tert-butyl-1-(6-methoxynaphthalen-2-yl)imidazo[1,5-a]pyrazin-8-amine] | 9 (≈ 3.12 µg/mL) | 7.17 | 7.19 | Cell Toxicity CRL8155, % at 10 μM [1]: <30% at 10 μM; Cell Toxicity HL60, % at 10 μM [3]: <30% at 10 μM
13 | Cc1cccc2[nH]c(-c3nc(C(C)(C)C)n4ccnc(N)c34)cc12 [Compound 83] | 36 (≈ 11.5 µg/mL) | 5.97 | 6.43 | Cell Toxicity CRL8155, % at 10 μM [1]: <30% at 10 μM; Cell Toxicity CRL8155, % at 30 μM [1]: 46% at 30 μM; Cell Toxicity HL60, % at 10 μM [3]: 37% at 10 μM; Cell Toxicity HL60, % at 30 μM [3]: 38% at 30 μM
14 | CC(C)(C)c1nc(-c2ccc3ccccc3c2)c2c(N)nccn12 [Compound 84] | 26 (≈ 8.23 µg/mL) | 7.21 | 7.26 | Cell Toxicity CRL8155, % at 10 μM [1]: <30% at 10 μM; Cell Toxicity CRL8155, % at 30 μM [1]: 48% at 30 μM; Cell Toxicity HL60, % at 10 μM [3]: <30% at 10 μM; Cell Toxicity HL60, % at 30 μM [3]: 50% at 30 μM
15 | Cc1cc(-c2nn(CC3CCNCC3)c3ncnc(N)c23)ccc1-c1ccccc1 [Compound 118] | 40 (≈ 15.9 µg/mL) | 6.29 | 6.29 | 
16 | Nc1ncnc2c1c(-c1ccc3cc(O)ccc3c1)nn2CC1CCNCC1 [Compound 119] | 50 (≈ 18.7 µg/mL) | 7.11 | 8.14 | Cell Toxicity CRL8155, % at 10 μM [1]: <30% at 10 μM; Cell Toxicity CRL8155, % at 30 μM [1]: <30% at 30 μM; Cell Toxicity HL60, % at 10 μM [3]: <30% at 10 μM;; Cell Toxicity HL60, % at 30 μM [3]: <30% at 30 μM

Row | SMILES | solubility ([4]; buffer) [µM] | pEC50 (PfCDPK1) | pEC50 (PfCDPK4) | further results
17 | Cn1ncc2cc(-c3nn(CC4CCNCC4)c4ncnc(N)c34)ccc21 [Compound 121] | 43 (≈ 15.6 µg/mL) | 6.15 | 6.84 | Cell Toxicity CRL8155, % at 10 μM [1]: <30% at 10 μM; Cell Toxicity HL60, % at 10 μM [3]: <30% at 10 μM; AUC [5]: 0.445 µM·h; Cmax [5]: 190 nM; Tmax [5]: 1.5 h
18 | CC(C)COc1ccc2cc(-c3nn(CC4CCN(C)CC4)c4ncnc(N)c34)ccc2c1 [Compound 124] | 41 (≈ 18.2 µg/mL) | 6.92 | 7.00 | AUC [5]: 6.65 µM·h; Cmax [5]: 1840 nM; Tmax [5]: 3 h
19 | Nc1ncnc2c1c(-c1ccc3ncccc3c1)nn2CC1CCNCC1 [Compound 125] | 54 (≈ 19.4 µg/mL) | 5.96 | 6.95 | 
20 | COc1ccc(-c2nn(C(C)(C)C)c3ncnc(N)c23)cc1C [Compound 132] | 3.8 (≈ 1.18 µg/mL) | < 5.52 | 5.83 | 
21 | Cc1cccc(-c2nn(C(C)(C)C)c3ncnc(N)c23)c1 [Compound 134] | 19.3 (≈ 5.43 µg/mL) |  |  | 
22 | COc1ccc2cc(-c3nn(C(C)(C)C)c4ncnc(N)c34)ccc2c1 [Compound 135] | 3 (≈ 1.04 µg/mL) | 6.18 | 6.86 | 
23 | CCOc1ccc2cc(-c3nn(C(C)(C)C)c4ncnc(N)c34)ccc2c1 [Compound 137] | 1 (≈ 0.361 µg/mL) | 5.61 | 6.03 | 
24 | CCOc1ccc2cc(-c3nn(C4CCNCC4)c4ncnc(N)c34)ccc2c1 [Compound 138] | 51 (≈ 19.8 µg/mL) |  |  | 
25 | Cn1ccc2cc(-c3nn(C(C)(C)C)c4ncnc(N)c34)ccc21 [Compound 139] | 0.69 (≈ 0.221 µg/mL) | 5.94 | 6.25 | 
26 | Cn1ncc2cc(-c3nn(C(C)(C)C)c4ncnc(N)c34)ccc21 [Compound 142] | 5.2 (≈ 1.67 µg/mL) | 6.53 | 7.02 | 
27 | CC(C)(C)n1nc(-c2ccc3ncccc3c2)c2c(N)ncnc21 [Compound 143] | 17 (≈ 5.41 µg/mL) |  |  | 
28 | COc1ccc(-c2nn(CC3CCNCC3)c3ncnc(N)c23)cc1C [Compound 144] | 60 (≈ 21.1 µg/mL) |  |  | 
29 | CC(C)(C)n1nc(-c2ccc(Cl)cc2)c2c(N)ncnc21 [Compound 146] |  |  |  | solubility [4]: 9 µM (≈ 2.72 µg/mL)
30 | Nc1ncnc2c1c(-c1ccc3ccccc3c1)nn2CC1CCNCC1 [Compound 147, 3-(naphthalen-2-yl)-1-(piperidin-4-ylmethyl)-1H-pyrazolo[3,4-d]pyrimidin-4-amine] | 79 (≈ 28.3 µg/mL) | 7.18 | 7.76 | Cell Toxicity CRL8155, % at 30 μM [1]: <30% at 30 μM; Cell Toxicity HL60, % at 10 μM [3]: 33% at 10 μM; Cell Toxicity HL60, % at 30 μM [3]: 60% at 30 μM;
31 | CCOc1ccc2cc(-c3nn(C4CCN(C)CC4)c4ncnc(N)c34)ccc2c1 [Compound 148] | 56 (≈ 22.5 µg/mL) |  | 7.41 | Cell Toxicity CRL8155, % at 30 μM [1]: <30% at 30 μM; Cell Toxicity HL60, % at 10 μM [3]: <30% at 10 μM; Cell Toxicity HL60, % at 30 μM [3]: 49% at 30 μM;
32 | CCOc1ccc2cc(-c3nn(C4CCN(CC)CC4)c4ncnc(N)c34)ccc2c1 [Compound 149] | 75 (≈ 31.2 µg/mL) |  | 7.09 | Cell Toxicity CRL8155, % at 10 μM [1]: <30% at 10 μM; Cell Toxicity CRL8155, % at 30 μM [1]: <30% at 30 μM; Cell Toxicity HL60, % at 30 μM [3]: <30% at 30 μM
